Experiments:
Assay type in all cases: cell-based
[1] = target: T1, PPAR gamma (Homo sapiens, UniProt P37231); experiment: Full-length PPAR transcriptional activation assay (PPRE::Luciferase reporter, HEK293 cells), PPAR gamma; conditions: transfected HEK293 cells (PPARγ2 plasmid), species of receptor not given
T1 construct: expressed in transfected cells; host or cells: HEK293
T1 sequence (P37231 1-505): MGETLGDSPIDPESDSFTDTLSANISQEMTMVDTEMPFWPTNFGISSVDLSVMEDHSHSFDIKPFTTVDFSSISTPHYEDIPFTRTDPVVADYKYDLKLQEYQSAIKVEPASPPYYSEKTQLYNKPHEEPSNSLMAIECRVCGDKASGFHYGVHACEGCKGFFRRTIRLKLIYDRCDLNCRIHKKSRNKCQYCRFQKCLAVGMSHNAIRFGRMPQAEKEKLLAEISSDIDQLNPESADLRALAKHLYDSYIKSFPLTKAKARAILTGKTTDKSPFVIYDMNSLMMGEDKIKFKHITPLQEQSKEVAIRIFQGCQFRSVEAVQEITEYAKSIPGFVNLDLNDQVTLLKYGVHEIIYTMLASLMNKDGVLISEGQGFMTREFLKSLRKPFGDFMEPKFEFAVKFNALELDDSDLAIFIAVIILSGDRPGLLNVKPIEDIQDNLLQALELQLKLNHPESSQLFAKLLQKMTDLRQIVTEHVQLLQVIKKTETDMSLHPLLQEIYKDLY
Protocol: (§1) HEK293 cells were seeded the day before transfection into 384-well plates at a cell density of 6,000 cells per well in 40 μl assay medium I (phenol red-free DMEM containing 4% charcoal-dextran stripped FBS, 1% Penicillin-Streptomycin and 1% GlutaMax-1). Then 25 ng of PPRE::Luciferase reporter plasmid, an expression plasmid (25 pg of PPARα, or 40 pg of PPARδ, or 75 pg of PPARγ2), and an appropriate amount of the plasmid pUC19 to bring the total DNA amount to 50 ng was added to 20 μl of phenol-red free DMEM and 150 nL of Fugene 6 and incubated for 30 minutes. The transfection mixtures were then added to the cells and incubated for three hours. 10 μl of test agents in 5% DMSO were then added to the cells and incubated at 37° C. for an additional 18 hours. Luciferase activity was then assayed by adding 25 μl/well of Britelite (Perkin Elmer) according to the manufacturer's protocol and relative light output was measured with an Analyst GT plate reader (Molecular Devices). All experimental points were done in triplicate and the assays were repeated at least 3 times.
(§2) HEK293 cells were seeded the day before transfection in […] dishes at a density of 9×10^6 cells/dish and incubated at 37° C., 10% CO2 for 16-24 hours. Then, […] of PPRE::Luciferase reporter plasmid, an expression plasmid (7.5 ng of PPARα, or 7.5 ng of PPARδ, or 75 ng of PPARγ2), and an appropriate amount of the plasmid pUC19 to bring the total DNA amount to […] were mixed with 54 μl of Fugene 6 in 2 mls of phenol red-free DMEM and incubated for 30 minutes. Transfection mixtures were then incubated with the cells for 18 hours. Cells were then replated into sterile, white TC treated 384-well assay plates at a cell density of 24×10^3 cells/well in 40 μl of assay medium II (phenol-red free DMEM containing 3% charcoal/dextran-stripped FBS, 1% Penicillin-Streptomycin and 1% GlutaMax-1) and incubated at 37° C. for 6 hours. 10 μl of test agents in 5% DMSO were then added to the cells and incubated at 37° C. for an additional 18 hours. Luciferase activity was then assayed by adding 30 μl/well of Britelite (Perkin Elmer) according to the manufacturer's protocol and relative light output was measured with an Analyst GT plate reader (Molecular Devices). All experimental points were done in triplicate and the assays were repeated 3 times.

[2] = target: T2, PPAR delta (Homo sapiens, UniProt Q03181); experiment: Full-length PPAR transcriptional activation assay (PPRE::Luciferase reporter, HEK293 cells), PPAR delta; conditions: transfected HEK293 cells, species of receptor not given
T2 construct: expressed in transfected cells; host or cells: HEK293
T2 sequence (Q03181 1-441): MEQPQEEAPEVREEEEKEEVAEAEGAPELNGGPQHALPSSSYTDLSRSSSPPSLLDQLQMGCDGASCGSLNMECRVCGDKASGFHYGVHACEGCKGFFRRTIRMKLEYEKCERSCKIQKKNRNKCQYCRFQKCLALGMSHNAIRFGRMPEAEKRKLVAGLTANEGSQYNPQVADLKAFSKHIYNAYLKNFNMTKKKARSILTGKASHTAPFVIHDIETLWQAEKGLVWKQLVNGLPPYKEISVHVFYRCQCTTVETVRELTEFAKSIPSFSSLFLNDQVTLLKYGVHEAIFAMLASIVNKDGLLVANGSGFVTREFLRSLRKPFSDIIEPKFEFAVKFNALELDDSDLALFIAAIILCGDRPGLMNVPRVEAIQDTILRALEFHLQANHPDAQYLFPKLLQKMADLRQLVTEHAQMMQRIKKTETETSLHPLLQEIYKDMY
Protocol: as §1, §2

[3] = target: T3, PPAR alpha (Homo sapiens, UniProt Q07869); experiment: Full-length PPAR transcriptional activation assay (PPRE::Luciferase reporter, HEK293 cells), PPAR alpha; conditions: transfected HEK293 cells, species of receptor not given
T3 construct: expressed in transfected cells; host or cells: HEK293
T3 sequence (Q07869 1-468): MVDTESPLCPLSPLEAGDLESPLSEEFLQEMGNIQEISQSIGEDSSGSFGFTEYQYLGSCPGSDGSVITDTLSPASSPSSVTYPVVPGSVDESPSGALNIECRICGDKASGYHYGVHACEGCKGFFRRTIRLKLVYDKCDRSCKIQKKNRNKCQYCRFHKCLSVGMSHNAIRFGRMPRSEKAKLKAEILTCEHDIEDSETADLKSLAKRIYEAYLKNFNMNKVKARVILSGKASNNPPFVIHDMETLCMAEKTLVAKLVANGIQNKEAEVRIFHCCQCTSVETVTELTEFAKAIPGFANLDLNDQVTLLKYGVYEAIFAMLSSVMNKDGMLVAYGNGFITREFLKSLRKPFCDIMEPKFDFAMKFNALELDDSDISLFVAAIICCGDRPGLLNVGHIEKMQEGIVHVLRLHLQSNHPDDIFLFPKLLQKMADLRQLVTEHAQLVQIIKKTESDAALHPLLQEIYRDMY
Protocol: as §1, §2

| SMILES | EC50 [1] | EC50 [2] | EC50 [3] |
| --- | --- | --- | --- |
| CCc1cnc(N(CCCC2Oc3cc(CC(=O)O)ccc3CC2C)Cc2ccc(OC(F)(F)F)cc2)nc1 (single isomer, unassigned) [Example 18B] | ≤ 1000 nM | ≤ 1000 nM | ≤ 1000 nM |
| CCc1cnc(N(CCC2CCc3ccc(CC(=O)O)cc3O2)Cc2ccc(C(F)(F)F)cc2)nc1 (stereo not drawn) [Example 16, 2-(2-(2-((5-ethylpyrimidin-2-yl)(4-(trifluoromethyl)benzyl)amino)ethyl)chroman-7-yl)acetic acid] | ≤ 1000 nM | ≤ 1000 nM | ≤ 1000 nM |
| CCc1cnc(N(CCc2ccc(C(F)(F)F)cc2)CCN2CCc3ccc(CC(=O)O)cc3C2)nc1 [Example 8, [2-(2-{(5-Ethyl-pyrimidin-2-yl)-[2-(4-trifluoromethyl-phenyl)-ethyl]-amino}-ethyl)-1,2,3,4-tetrahydro-isoquinolin-7-yl]-acetic acid] | > 1000 nM | ≤ 1000 nM | > 1000 nM |
| CCc1cnc(N(CCN2CCc3ccc(CC(=O)O)cc3C2)Cc2ccc(OC(F)(F)F)cc2)nc1 [Example 3, (2-{2-[(5-Ethyl-pyrimidin-2-yl)-(4-trifluoromethoxy-benzyl)-amino]-ethyl}-1,2,3,4-tetrahydro-isoquinolin-7-yl)-acetic acid] | ≤ 1000 nM | ≤ 1000 nM | > 1000 nM |
| CCc1cnc(N(CCCN2CCc3ccc(CC(=O)O)cc3C2)c2ccc(C(F)(F)F)cc2)nc1 [Example 7, (2-[3-[(5-Ethyl-pyrimidin-2-yl)-(4-trifluoromethyl-phenyl)-amino]-propyl]-1,2,3,4-tetrahydroisoquinolin-7-yl)-acetic acid] | > 1000 nM | > 1000 nM | > 1000 nM |
| CCc1cnc(N(CCC2CCc3c(CC(=O)O)cccc3O2)Cc2ccc(C(F)(F)F)cc2)nc1 (stereo not drawn) [Example 17, 2-(2-(2-((5-ethylpyrimidin-2-yl)(4-(trifluoromethyl)benzyl)amino)ethyl)chroman-5-yl)acetic acid] | ≤ 1000 nM | ≤ 1000 nM | ≤ 1000 nM |
| CCc1cnc(N(CCCN2CCc3ccc(CC(=O)O)cc3C2)c2ccc(OC(F)(F)F)cc2)nc1 [Example 6, (2-{3-[(5-Ethyl-pyrimidin-2-yl)-(4-trifluoromethoxy-phenyl)-amino]-propyl}-1,2,3,4-tetrahydroisoquinolin-7-yl)-acetic acid] | > 1000 nM | > 1000 nM | > 1000 nM |
| CCc1cnc(N(CCCC2CCc3ccc(CC(=O)O)cc3O2)Cc2ccc(C(F)(F)F)cc2)nc1 (stereo not drawn) [Example 10, (2-{3-[(5-Ethyl-pyrimidin-2-yl)-(4-trifluoromethyl-benzyl)-amino]-propyl}-chroman-7-yl)-acetic acid] | ≤ 1000 nM | ≤ 1000 nM | > 1000 nM |
| CCc1cnc(N(CCCC2Oc3cccc(CC(=O)O)c3CC2C)Cc2ccc(OC(F)(F)F)cc2)nc1 (single isomer, unassigned) [Example 19A, 2-(2-(3-((5-ethylpyrimidin-2-yl)(4-(trifluoromethoxy)benzyl)amino)propyl)-3-methylchroman-5-yl)acetic acid] | ≤ 1000 nM | ≤ 1000 nM | > 1000 nM |
| CCc1cnc(N(CCCC2CCc3c(CC(=O)O)cccc3O2)Cc2ccc(C(F)(F)F)cc2)nc1 (stereo not drawn) [Example 11, (2-{3-[(5-Ethyl-pyrimidin-2-yl)-(4-trifluoromethyl-benzyl)-amino]-propyl}-chroman-5-yl)-acetic acid] | ≤ 1000 nM | ≤ 1000 nM | > 1000 nM |
| CCc1cnc(N(CCN2CCc3ccc(CC(=O)O)cc3C2)Cc2ccc(C(F)(F)F)cc2C(F)(F)F)nc1 [Example 4, (2-{2-[(2,4-Bis-trifluoromethyl-benzyl)-(5-ethyl-pyrimidin-2-yl)-amino]-ethyl}-1,2,3,4-tetrahydro-isoquinolin-7-yl)-acetic acid] | ≤ 1000 nM | ≤ 1000 nM | > 1000 nM |
| CCc1cnc(N(CCCC2Oc3cc(CC(=O)O)ccc3CC2C)Cc2ccc(OC(F)(F)F)cc2)nc1 (single isomer, unassigned) [Example 18D] | ≤ 1000 nM | ≤ 1000 nM | > 1000 nM |
| CCc1cnc(N(CCCC2Oc3cccc(CC(=O)O)c3CC2C)Cc2ccc(OC(F)(F)F)cc2)nc1 (single isomer, unassigned) [Example 19B, 2-(2-(3-((5-ethylpyrimidin-2-yl)(4-(trifluoromethoxy)benzyl)amino)propyl)-3-methylchroman-5-yl)acetic acid] | ≤ 1000 nM | ≤ 1000 nM | > 1000 nM |
| CCc1cnc(N(CCCN2CCc3ccc(CC(=O)O)cc3C2)CCc2ccc(C(F)(F)F)cc2)nc1 [Example 9, [2-(3-{(5-Ethyl-pyrimidin-2-yl)-[2-(4-trifluoromethyl-phenyl)-ethyl]-amino}-propyl)-1,2,3,4-tetrahydro-isoquinolin-7-yl]-acetic acid] | > 1000 nM | ≤ 1000 nM | > 1000 nM |
| CCc1cnc(N(CCCCN2CCc3ccc(CC(=O)O)cc3C2)c2ccc(OC(F)(F)F)cc2)nc1 [Example 5, (2-{4-[(5-Ethyl-pyrimidin-2-yl)-(4-trifluoromethoxy-phenyl)-amino]-butyl}-1,2,3,4-tetrahydro-isoquinolin-7-yl)-acetic acid] | > 1000 nM | > 1000 nM | > 1000 nM |
| CCc1cnc(N(CCCC2Oc3cccc(CC(=O)O)c3CC2C)Cc2ccc(OC(F)(F)F)cc2)nc1 (single isomer, unassigned) [Example 19C, 2-(2-(3-((5-ethylpyrimidin-2-yl)(4-(trifluoromethoxy)benzyl)amino)propyl)-3-methylchroman-5-yl)acetic acid] | ≤ 1000 nM | ≤ 1000 nM | > 1000 nM |
| CCc1cnc(N(CCCC2CCc3c(CC(=O)O)cccc3O2)CCc2ccc(OC(F)(F)F)cc2)nc1 (stereo not drawn) [Example 15, 2-(2-(3-((5-Ethylpyrimidin-2-yl)(4-(trifluoromethoxy)phenethyl)amino)propyl)chroman-5-yl)acetic acid] | ≤ 1000 nM | ≤ 1000 nM | > 1000 nM |

Source: US20070219193A1, “ALKYLAMINE-SUBSTITUTED BICYCLIC ARYL COMPOUNDS USEFUL AS MODULATORS OF PPAR” (KALYPSYS, INC, priority 2006, published 2007)
